Test results reported in patent US20090325877A1, “Combination Product of Receptor Tyrosine Kinase Inhibitor and Fatty Acid Synthase Inhibitor for Treating Cancer” (Wyeth, priority 2008, published 2009).
Where two headings read alike, the source gives them in different places.

B1: matuzumab: Humanized mAb; EGFR (antibody, chains of the INN, looked up, V domains shown)
VH: QVQLVQSGAEVKKPGASVKVSCKASGYTFTSHWMHWVRQAPGQGLEWIGEFNPSNGRTNYNEKFKSKATMTVDTSTNTAYMELSSLRSEDTAVYYCASRDYDYDGRYFDYWGQGTLVTVSS
VL: DIQMTQSPSSLSASVGDRVTITCSASSSVTYMYWYQQKPGKAPKLLIYDTSNLASGVPSRFSGSGSGTDYTFTISSLQPEDIATYYCQQWSSHIFTFGQGTKVEIK

Tests used:
[1] = system: A2780 ovarian cancer cells; assay: Formazan dye (MTT) in-vitro cell growth assay, A2780; format: cell-based; details: for in vitro growth inhibition (in words): A2780, MTT assay, single drug
Method: Effect of FAS and ErbB inhibition on A2780 ovarian cancer cells (OCC). […] Cells were grown for three days in the presence of vehicle (0.1% DMSO) or synthetic inhibitor before cell number was estimated. Data in the charts represent means +/−SD of triplicate measurements.
(§1) Cells were plated at 0.5−5×10^3/well in 96-well plates. After adhesion, media ±drugs alone or in combination were added. Cell numbers were estimated after 3-5 days by using a colorimetric formazan dye assay (Biomedica, Vienna, Austria). Results (mean±SD, n=3) were expressed in percent of untreated (solvent) control. Statistical analysis of data from drug combination treatment experiments was performed using one-factorial ANOVA followed by Scheffe-test.
(§2) Yellow MTT (3-(4,5-Dimethylthiazol-2-yl)-2,5-diphenyltetrazolium bromide, a tetrazole) is reduced to purple formazan in the mitochondria of living cells (see Mosmann, T., J. Immunol. Methods, 65(1-2): 55-63, 1983).

[2] = system: SKOV3 ovarian cancer cells; assay: Formazan dye (MTT) in-vitro cell growth assay, SKOV3; format: cell-based; details: for in vitro growth inhibition (in words): MTT assay, single drug
Method: as §1, with “Results (mean±SD, n=3) were expressed in percent of untreated (solvent) control.” left out
as §2

FASN mRNA [3] = assay: FASN mRNA expression by qRT-PCR in A2780 cells; format: cell-based, human; details: b102: within three days, pelitinib at doses as low as 3 μM
Excerpt: (§3) RNA was extracted from the cells using TRI-REAGENT™ (Molecular Research Center, Cincinnati, Ohio) and subjected to reverse transcription—polymerase chain reaction (“RT-PCR”) using the TITAN ONE TUBE RT-PCR KIT™ system (Hoffmann-La Roche). Primers were: EGFR: 5′-[…]-3′ (SEQ ID NO:1) (forward, E1S) 5′-[…]-3′ (SEQ ID NO:2) (reverse, E1A); ErbB-2: 5′-[…]-3′ (SEQ ID NO:3) (forward, E2S2), 5′-[…]-3′ (SEQ ID NO:4) (reverse, E2A2); GAPDH: 5′-[…]-3′ (SEQ ID NO:5) (forward, GAPDH3S), 5′-[…]-3′ (SEQ ID NO:6) (reverse, GAPDH3A). Conditions for reverse transcription and amplification of the EGFR coding sequence were: 50° C., 30 minutes; 94° C., 2 minutes; 10 cycles (94° C., 30 seconds; 64.9° C., 30 seconds; 68° C., 90 seconds); 30 cycles (94° C., 30 seconds; 64.9° C., 30 seconds; 68° C., 90 seconds +5 seconds autoextension) and 68° C., 7 minutes. Conditions for ErbB2 and GAPDH were: 50° C., 30 minutes; 94° C., 2 minutes; 10 cycles (94° C., 30 seconds; 51° C., 30 seconds; 68° C., 45 seconds); 25 cycles (94° C., 30 seconds; 51° C., 30 seconds; 68° C., 45 seconds +5 seconds autoextension) and 68° C., 7 minutes. DNA products had the following sizes: EGFR: 1452 bp, ErbB2: 900 bp, GAPDH: 488 bp. Fragments were electrophoresed and stained with ethidium bromide.
(§4) Quantitative RT-PCR (“qRT-PCR”) was performed in the ABI PRISM 7000™ Sequence Detector (Applied Biosystems, Foster City, Calif.) using human EGFR, ErbB2, and FASN TaqMan® Gene Expression Assay systems (Applied Biosystems; Assay IDs: Hs00193306_m1, Hs00170433_m1, Hs00188012_m1) according to the manufacturer's instructions. β-actin and GAPDH (VIC™ and FAM labeled pre-developed TaqMan® Assay reagents, Applied Biosystems) were used as endogenous controls. EGFR, ErbB2, and FASN mRNA expression were calculated as described previously (Grunt, ibid).

FASN protein [4] = assay: FASN protein level by Western blotting in A2780 cells; format: cell-based; details: b102: within three days, pelitinib at doses as low as 3 μM
FASN mRNA [5] = assay: FASN mRNA levels in SKOV3 cells; format: cell-based, human
Excerpt: RNA was extracted from the cells using TRI-REAGENT™ (Molecular Research Center, Cincinnati, Ohio) and subjected to reverse transcription—polymerase chain reaction (“RT-PCR”) using the TITAN ONE TUBE RT-PCR KIT™ system (Hoffmann-La Roche). Primers were: EGFR: 5′-[…]-3′ (SEQ ID NO:1) (forward, E1S) 5′-[…]-3′ (SEQ ID NO:2) (reverse, E1A); ErbB-2: 5′-[…]-3′ (SEQ ID NO:3) (forward, E2S2), 5′-[…]-3′ (SEQ ID NO:4) (reverse, E2A2); GAPDH: 5′-[…]-3′ (SEQ ID NO:5) (forward, GAPDH3S), 5′-[…]-3′ (SEQ ID NO:6) (reverse, GAPDH3A). Conditions for reverse transcription and amplification of the EGFR coding sequence were: 50° C., 30 minutes; 94° C., 2 minutes; 10 cycles (94° C., 30 seconds; 64.9° C., 30 seconds; 68° C., 90 seconds); 30 cycles (94° C., 30 seconds; 64.9° C., 30 seconds; 68° C., 90 seconds +5 seconds autoextension) and 68° C., 7 minutes. […]
as §4

FASN protein [6] = assay: FASN protein levels by Western blotting in SKOV3 cells; format: cell-based
Method: Cells plated in culture media containing 5% fetal calf serum at a density of 2.6×10^5 (SKOV3) or 6×10^5 (A2780) in 60 mm dishes (Corning, Corning, N.Y.) were treated with FASN inhibitor C75, with small-molecule ErbB RTK inhibitors (RTKIs), with the MEK1/2 antagonist U0126 or with the PI3K inhibitor LY294002 for the indicated times and at various concentrations. In some experiments cells were stimulated for 5 or 10 min with 100 ng/ml EGF (Sigma) before lysis in RIPA buffer (Grunt et al., Biochem Biophys Res Commun 329:1253-1259, 2005). Proteins (20 μg/lane) were subjected to SDS-PAGE, blotted onto PVDF membranes and immunostained (see Grunt, ibid) using the following antibodies: 2 μg/ml goat anti-pEGFR(Tyr1173) (sc-12351), 1 μg/ml rabbit anti-ErbB2 (C-18) (sc-284), 1 μg/ml rabbit anti-pErbB2(Tyr1248) (sc-12352-R) (all from Santa Cruz Biotechnology Inc., Santa Cruz, Calif.), rabbit anti-EGFR 1:1,000 (2232), rabbit anti-AKT 1:1,000 (9272), rabbit anti-pAKT(Ser473) 1:1,000 (9271), rabbit anti-pAKT(Thr308) 1:1,000 (9275), rabbit anti-pERK1/2(Thr202/Tyr204) 1:1,000 (9101) (all from Cell Signaling Technology), rabbit anti-ERK1/2 1:3,000 (06-182, Upstate Biotechnology Inc., Lake Placid, N.Y.), 0.5 μg/ml mouse monoclonal anti-FASN (610963, BD Biosciences, San Jose, Calif.), or 0.67 μg/ml goat anti-human actin (1-19, sc-1616, Santa Cruz Biotechnology). […]

EGFR mRNA = EGFR mRNA by RT-PCR and qRT-PCR in A2780 cells; format: cell-based, human
Method: RNA was extracted from the cells using TRI-REAGENT™ (Molecular Research Center, Cincinnati, Ohio) and subjected to reverse transcription—polymerase chain reaction (“RT-PCR”) using the TITAN ONE TUBE RT-PCR KIT™ system (Hoffmann-La Roche). […] Conditions for ErbB2 and GAPDH were: 50° C., 30 minutes; 94° C., 2 minutes; 10 cycles (94° C., 30 seconds; 51° C., 30 seconds; 68° C., 45 seconds); 25 cycles (94° C., 30 seconds; 51° C., 30 seconds; 68° C., 45 seconds +5 seconds autoextension) and 68° C., 7 minutes. […] Fragments were electrophoresed and stained with ethidium bromide.
as §4

EGFR protein = EGFR protein and tyrosine phosphorylation by Western blot in A2780 cells; format: cell-based
ErbB2 mRNA = ErbB2 mRNA by RT-PCR and qRT-PCR in A2780 cells; format: cell-based, human
Excerpt: as §3, §4

ErbB2 protein = assay: Total and phosphorylated ErbB2 protein by Western blot in A2780 cells; format: cell-based
Method: Cells plated in culture media containing 5% fetal calf serum at a density of 2.6×10^5 (SKOV3) or 6×10^5 (A2780) in 60 mm dishes (Corning, Corning, N.Y.) were treated with FASN inhibitor C75, with small-molecule ErbB RTK inhibitors (RTKIs), with the MEK1/2 antagonist U0126 or with the PI3K inhibitor LY294002 for the indicated times and at various concentrations. In some experiments cells were stimulated for 5 or 10 min with 100 ng/ml EGF (Sigma) before lysis in RIPA buffer (Grunt et al., Biochem Biophys Res Commun 329:1253-1259, 2005). Proteins (20 μg/lane) were subjected to SDS-PAGE, blotted onto PVDF membranes and immunostained (see Grunt, ibid) using the following antibodies: 2 μg/ml goat anti-pEGFR(Tyr1173) (sc-12351), 1 μg/ml rabbit anti-ErbB2 (C-18) (sc-284), 1 μg/ml rabbit anti-pErbB2(Tyr1248) (sc-12352-R) (all from Santa Cruz Biotechnology Inc., Santa Cruz, Calif.), rabbit anti-EGFR 1:1,000 (2232), rabbit anti-AKT 1:1,000 (9272), rabbit anti-pAKT(Ser473) 1:1,000 (9271), rabbit anti-pAKT(Thr308) 1:1,000 (9275), rabbit anti-pERK1/2(Thr202/Tyr204) 1:1,000 (9101) (all from Cell Signaling Technology), rabbit anti-ERK1/2 1:3,000 (06-182, Upstate Biotechnology Inc., Lake Placid, N.Y.), 0.5 μg/ml mouse monoclonal anti-FASN (610963, BD Biosciences, San Jose, Calif.), or 0.67 μg/ml goat anti-human actin (1-19, sc-1616, Santa Cruz Biotechnology). Secondary antibodies were peroxidase-tagged donkey-anti-rabbit IgG (V795A, Promega, Madison, Wis.) or donkey-anti-goat IgG (sc-2020, Santa Cruz Biotechnology) at 1:15,000, respectively, or chicken anti-mouse IgG (sc-2954, Santa Cruz Biotechnology) at 1:10,000. Detection was performed by enhanced chemiluminescence.

| Molecule | in vitro growth inhibition (in words) [1] | in vitro growth inhibition (in words) [2] | FASN mRNA expression, effect in words (FASN mRNA [3]) | FASN protein expression, effect in words (FASN protein [4]) | EGFR mRNA, effect in words (EGFR mRNA) | EGFR total protein, effect in words (EGFR protein) | ErbB2 mRNA, effect in words (ErbB2 mRNA) | phosphorylated ErbB2 (pErbB2), effect in words (ErbB2 protein) | total ErbB2 protein, effect in words (ErbB2 protein) | further results |
| --- | --- | --- | --- | --- | --- | --- | --- | --- | --- | --- |
| C#Cc1cccc(Nc2ncnc3cc(OCCOC)c(OCCOC)cc23)c1 [erlotinib] | does not significantly inhibit growth | does not significantly inhibit growth | effect was also seen | effect was also seen |  |  |  |  |  |  |
| N#CC(=C(/N)Sc1ccccc1N)/C(C#N)=C(\N)Sc1ccccc1N [U0126] |  |  |  |  |  |  |  |  |  | FASN mRNA levels, effect in words (FASN mRNA [5]): does not affect; FASN protein levels, effect in words (FASN protein [6]): does not affect |
| CCOc1cc2ncc(C#N)c(Nc3ccc(F)c(Cl)c3)c2cc1NC(=O)C=CCN(C)C [EKB-569, 4-Dimethylamino-but-2-enoic acid [4-(3-chloro-4-fluoro-phenylamino)-3-cyano-7-ethoxy-quinolin-6-yl]-amide] | growth inhibitory activity | growth inhibitory activity | represses | represses | weak dose-dependent repression | abolishes | only weakly depresses | abolishes | abolishes | IC50 ([1]; Homo sapiens, 72 h, A2780 OCC, each individual inhibitor, 50% reduction of cell growth, three days, n = 3-5, read-out: IC50 (μM) Mean +/− SD): 5.14 µM; FASN mRNA expression, effect in words (FASN mRNA [3]; listed as pelitinib): abrogated; FASN protein expression, effect in words (FASN protein [4]; listed as pelitinib): abrogated; EGFR mRNA, effect in words (EGFR mRNA; listed as pelitinib): dose-dependent down-regulation; EGFR tyrosine phosphorylation (activity), effect in words (EGFR protein): dose-dependent reduction; EGFR total protein, effect in words (EGFR protein; listed as pelitinib): dose-dependent down-regulation; EGFR tyrosine phosphorylation (activity), effect in words (EGFR protein; listed as pelitinib): completely abrogates; ErbB2 mRNA, effect in words (ErbB2 mRNA; listed as pelitinib): do not appear to be affected; phosphorylated ErbB2 (pErbB2), effect in words (ErbB2 protein; listed as pelitinib): abrogated; total ErbB2 protein, effect in words (ErbB2 protein; listed as pelitinib): abrogated |
| C=CC(=O)Nc1cc2c(Nc3ccc(F)c(Cl)c3)ncnc2cc1OCCCN1CCOCC1 [canertinib] | growth inhibitory activity | growth inhibitory activity | effect was also seen | effect was also seen | does not diminish | does not diminish | fails to down-regulate | strongly diminishes | slightly attenuates |  |
| B1 |  |  |  |  |  |  |  |  |  | growth inhibition ([2]; antibody alone at 20 μg/ml): ~10% |
